Literature values in patent publication US12281304B2, “Compositions and methods for treating and preventing muscular disorders and dystrophies, steroid side effects, and inflammation” (Children's National Medical Center, priority 2018, dated 2025).

Test system: mdx mice
Settings: same mdx mice as discovery set; prednisolone 5 mg/kg, vamorolone 15 mg/kg; cited from earlier work

Row | SMILES | grip strength, muscle pathology and diaphragm inflammation | steroid side effects (stunted growth, immunosuppression, bone loss)
1 | C[C@]12C=CC(=O)C=C1CC[C@@H]1[C@@H]2[C@@H](O)C[C@@]2(C)[C@H]1CC[C@]2(O)C(=O)CO [prednisolone] | successfully improved grip strength, muscle pathology, and diaphragm inflammation | caused traditional steroid side effects of stunted growth, immunosuppression, and bone loss
2 | C[C@@H]1C[C@H]2[C@@H]3CCC4=CC(=O)C=C[C@]4(C)C3=CC[C@]2(C)[C@@]1(O)C(=O)CO [vamorolone] | successfully improved grip strength, muscle pathology, and diaphragm inflammation | successfully avoided these side effects
